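Five concentrations, 48 hours, 96-well plates. The concentration for 50% growth inhibition is given as GI50. At the TGI there is no net growth.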
Experiments:
Assay in all cases: NCI anticancer screen, dose series, 48 h
[1] = tested on: HL-60(TB) leukemia
[2] = tested on: SK-MEL-5 melanoma
[3] = tested on: SNB-19 CNS
[4] = tested on: CCRF-CEM leukemia
[5] = tested on: HOP-62 NSCLC
[6] = tested on: SF-268 CNS
[7] = tested on: SK-MEL-2 melanoma
[8] = tested on: CAKI-1 renal
[9] = tested on: PC-3 prostate
[10] = tested on: MCF7 breast

SMILES: CCCCCCCCCCCC(=O)c1c(O)cccc1O
- TGI [1]: 43.6 µM
- TGI [2]: 26.7 µM
- TGI [3]: 30.4 µM
- TGI [4]: 62.8 µM
- TGI [5]: 31.5 µM
- TGI [6]: 30.4 µM
- TGI [7]: 30 µM
- TGI [8]: 56.7 µM

SMILES: CC(C(=O)c1ccc(Cl)cc1)C1OC(=O)C(Cl)=C1Cl (configuration not stated)
- TGI [1]: 47.6 µM
- TGI [2]: > 100 µM
- TGI [3]: > 100 µM
- TGI [4]: 41.4 µM
- TGI [5]: > 100 µM
- TGI [6]: > 100 µM
- TGI [7]: 48.9 µM

SMILES: NC(=S)N/N=C\c1nccc2c(N)cccc12
- GI50 [1]: 0.181 µM
- TGI [1]: 11.7 µM
- GI50 [2]: 0.324 µM
- TGI [2]: 4.01 µM
- GI50 [3]: 0.557 µM
- TGI [3]: > 100 µM
- GI50 [9]: 0.452 µM
- TGI [9]: > 100 µM
- GI50 [10]: 0.218 µM
- GI50 [5]: 0.352 µM
- TGI [5]: > 22 µM
- GI50 [6]: 0.242 µM
- GI50 [7]: 2.79 µM
- TGI [7]: > 100 µM
- GI50 [8]: 0.243 µM
- TGI [8]: 1.01 µM

SMILES: OCC#Cc1ccccc1C#Cc1ccc(C#Cc2ccccc2C#CCO)s1
- GI50 [1]: 43.4 µM
- TGI [1]: > 100 µM
- GI50 [2]: 16.3 µM
- TGI [2]: 31.2 µM
- GI50 [3]: 22.1 µM
- TGI [3]: 42.7 µM
- GI50 [9]: 14.8 µM
- TGI [9]: 28.7 µM
- GI50 [10]: 29.9 µM
- TGI [10]: > 100 µM
- GI50 [5]: 22.6 µM
- TGI [5]: 53.7 µM
- GI50 [6]: 20.6 µM
- TGI [6]: 44.5 µM
- GI50 [7]: 14.6 µM
- TGI [7]: 35.8 µM
- GI50 [8]: 12.1 µM
- TGI [8]: 25.1 µM

SMILES: c1cc[c]([Sn]([S]c2cccc3cccnc23)([S]c2cccc3cccnc23)[c]2ccccc2)cc1
- GI50 [1]: 0.172 µM
- TGI [1]: 0.563 µM
- GI50 [2]: 0.204 µM
- TGI [2]: 0.483 µM
- GI50 [3]: 0.438 µM
- TGI [3]: 1.66 µM
- GI50 [4]: 0.0948 µM
- TGI [4]: 0.429 µM
- GI50 [5]: 0.411 µM
- TGI [5]: 1.75 µM
- GI50 [6]: 0.331 µM
- TGI [6]: 1.48 µM
- GI50 [7]: 0.16 µM
- TGI [7]: 0.538 µM
- GI50 [8]: 0.134 µM
- TGI [8]: 0.43 µM

SMILES: CCCCCC(O)(CCCCC)CCCCCCCCC1=C(O)c2[nH]c(=O)ccc2C(=O)C1=O
- TGI [1]: 23.6 µM
- TGI [2]: 12.9 µM
- TGI [3]: 18.2 µM
- TGI [4]: 48.1 µM
- TGI [5]: 24.9 µM
- TGI [6]: 19.1 µM
- TGI [7]: 13.9 µM
- TGI [8]: 32 µM

SMILES: CCCCCCCCCCCC(O)=C1C(=O)CC(O)CC1=O (configuration not stated)
- TGI [1]: 58.7 µM
- TGI [2]: > 100 µM
- TGI [3]: > 100 µM
- TGI [4]: > 100 µM
- TGI [5]: > 100 µM
- TGI [6]: > 100 µM
- TGI [7]: > 100 µM
- TGI [8]: > 100 µM

SMILES: COC(=O)/C(=C/c1ccc(OC)cc1)NC(=O)c1ccccc1
- TGI [1]: > 100 µM
- TGI [2]: > 100 µM
- TGI [3]: > 100 µM
- TGI [4]: > 100 µM
- TGI [6]: > 100 µM
- TGI [7]: > 100 µM
- TGI [8]: > 100 µM

SMILES: CN1CCN(c2ccc(NC3=C(Cl)C(=O)c4ncccc4C3=O)cc2C#N)CC1
- GI50 [1]: 0.316 µM
- TGI [1]: 1.24 µM
- GI50 [2]: 1.83 µM
- TGI [2]: 3.38 µM
- GI50 [3]: 11 µM
- TGI [3]: 23 µM
- GI50 [9]: 2.29 µM
- TGI [9]: 9.34 µM
- GI50 [5]: 11.8 µM
- TGI [5]: 34.7 µM
- GI50 [6]: 2.09 µM
- TGI [6]: 5.27 µM
- GI50 [7]: 2.26 µM
- TGI [7]: 4.69 µM
- GI50 [8]: 1.09 µM
- TGI [8]: 2.31 µM

SMILES: N[C@@H]1CCCC[C@@H]1N.O=C([O-])CN(CP(=O)([O-])[O-])CP(=O)([O-])[O-].[Pt+2]
- GI50 [1]: > 100 µM
- TGI [1]: > 100 µM
- GI50 [2]: > 100 µM
- TGI [2]: > 100 µM
- GI50 [3]: > 100 µM
- TGI [3]: > 100 µM
- GI50 [4]: 29 µM
- TGI [4]: 93.4 µM
- GI50 [5]: > 100 µM
- TGI [5]: > 100 µM
- GI50 [6]: > 100 µM
- TGI [6]: > 100 µM
- GI50 [7]: > 100 µM
- TGI [7]: > 100 µM
- GI50 [8]: > 100 µM
- TGI [8]: > 100 µM

SMILES: O=C(O)c1cc(Cc2ccc(O)c(C(=O)O)c2)ccc1O (tested in a mixture with another compound)
- GI50 [2]: 4.9 µM
- TGI [2]: 19.8 µM
- GI50 [3]: 12.8 µM
- TGI [3]: 28.2 µM
- GI50 [9]: 3.58 µM
- TGI [9]: 19.2 µM
- GI50 [10]: 2.53 µM
- TGI [10]: 12.5 µM
- GI50 [4]: 2.25 µM
- TGI [4]: > 100 µM
- GI50 [5]: 10.9 µM
- TGI [5]: 26.6 µM
- GI50 [6]: 7.88 µM
- TGI [6]: 26.1 µM
- GI50 [8]: 1.36 µM
- TGI [8]: 3.69 µM

SMILES: C#C[C@H](CCCC)OC(=O)N[C@H](C)c1ccccc1
- TGI [1]: 40.7 µM
- TGI [2]: 37 µM
- TGI [3]: > 100 µM
- TGI [4]: > 100 µM
- TGI [5]: > 100 µM
- TGI [6]: > 100 µM
- TGI [7]: 68.4 µM
- TGI [8]: > 100 µM

SMILES: c1cc(-c2cn[nH]c2)cc(-c2cn[nH]c2)c1
- TGI [1]: 66.6 µM
- TGI [2]: > 100 µM
- TGI [3]: > 100 µM
- TGI [4]: > 100 µM
- TGI [5]: > 100 µM
- TGI [6]: > 100 µM
- TGI [7]: > 100 µM
- TGI [8]: 83.9 µM

SMILES: CO[C@@]12C[C@H]3[C@@H]([C@@H](O)[C@@H](OC(=O)/C=C/c4ccccc4)[C@@]4(O)C(C)(C)CCC[C@]34C)[C@@H](C)C1=CC(=O)O2
- GI50 [1]: 11.1 µM
- TGI [1]: > 100 µM
- GI50 [2]: 4.55 µM
- TGI [2]: 18.3 µM
- GI50 [3]: 16.1 µM
- TGI [3]: > 100 µM
- GI50 [9]: 5.13 µM
- TGI [9]: 29.2 µM
- GI50 [10]: 8.68 µM
- TGI [10]: > 100 µM
- GI50 [6]: 6.78 µM
- TGI [6]: 72.8 µM
- GI50 [7]: 27 µM
- TGI [7]: > 100 µM
- GI50 [8]: 6.76 µM
- TGI [8]: 30.8 µM

SMILES: COc1cc(Cl)c2c3c(c(C(=O)c4ccccc4)oc13)CCC2
- TGI [1]: > 100 µM
- TGI [2]: > 100 µM
- TGI [3]: > 100 µM
- TGI [4]: > 100 µM
- TGI [5]: > 100 µM
- TGI [8]: > 100 µM

SMILES: CC1(C)CC(=O)C(=[N+]=[N-])C(=O)C1
- TGI [1]: > 100 µM
- TGI [3]: > 100 µM
- TGI [4]: > 100 µM
- TGI [5]: > 100 µM
- TGI [6]: > 100 µM
- TGI [7]: > 100 µM
- TGI [8]: > 100 µM

SMILES: CC1CCP(=O)(c2ccccc2)CC1 (configuration not stated)
- TGI [1]: > 100 µM
- TGI [2]: > 100 µM
- TGI [3]: > 100 µM
- TGI [4]: > 100 µM
- TGI [5]: > 100 µM
- TGI [6]: > 100 µM
- TGI [7]: > 100 µM
- TGI [8]: > 100 µM

SMILES: C(=C\c1nccc2c1[nH]c1ccccc12)/c1ccccc1
- GI50 [1]: 2.07 µM
- TGI [1]: 5.55 µM
- GI50 [2]: 2.27 µM
- TGI [2]: 8.05 µM
- GI50 [3]: 4.4 µM
- TGI [3]: 48.4 µM
- GI50 [9]: 2.82 µM
- TGI [9]: > 100 µM
- GI50 [10]: 2.15 µM
- TGI [10]: 23 µM
- GI50 [4]: 2.1 µM
- TGI [4]: 6.03 µM
- GI50 [5]: 2.97 µM
- TGI [5]: 22.3 µM
- GI50 [6]: 5.23 µM
- TGI [6]: > 100 µM
- GI50 [7]: 5.82 µM
- TGI [7]: 39.7 µM

Source: PubChem BioAssay (NCI)
